# According to patent publication US5041636A, “Urea derivatives” (Wako Pure Chemical Industries, Ltd., priority 1986, dated 1991):
# Structures can show the parent of a compound that is named as a salt.
# Key:
# Type in all cases: physicochemical
# [1] = Maximum absorption wavelength (λmax) and sensitivity (ε) (Table 1); conditions: at color development
# Excerpt: (§1) Various properties such as the stability of leuco dye solution, the stability after color developed, the maximum absorption wavelength (λmax), the sensitivity (ε) and the solubility in water of typical 14 examples of the urea derivatives of the formula (I) are shown in Table 1.
# [2] = Stability of leuco dye solution (Table 1); design: key: A: stable; B: slightly unstable
# Description: as §1
# (§2) In Table 1, "A" means stable and "B" means slightly unstable in the evaluation of the stability of the leuco dye solution and the stability after color development. The solubility in water is evaluated as .circleincircle. highly soluble, soluble, and X hardly soluble.
# [3] = Stability after color development (Table 1); design: key: A: stable; B: slightly unstable
# Description: as §1, §2
# [4] = Solubility in water (Table 1)
# Description: as §1, §2
λmax [1] [nm],Stability of leuco dye soln. [2],Stability after color developed [3],Solubility in water [4],Structure (SMILES)
730,A,B,–,Cc1ccc(S(=O)(=O)NC(=O)N(c2ccc(N(C)CO)cc2)c2ccc(N3CCCCC3)cc2)cc1 [(5)]
730,A,B,–,CN(C)c1ccc(N(C(=O)NCCC2CCOCC2)c2ccc(N(C)CO)cc2)cc1 [(6)]
666,A,B,.circleincircle,CCCN(CCC)c1ccc2c(c1)Oc1cc(N(CCC)CCC)ccc1N2C(=O)NCC(=O)O [(11)]
666,A,B,.circleincircle,CCCN(CCC)c1ccc2c(c1)Sc1cc(N(CCC)CCC)ccc1N2C(=O)NCC(=O)O [(12)]
666,B,B,.circleincircle,CN(C)c1ccc2c(c1)Oc1cc(N(C)CC(=O)O)ccc1N2C(=O)NCC(=O)O [(13)]
666,B,B,.circleincircle,CN(C)c1ccc2c(c1)Sc1cc(N(C)CC(=O)O)ccc1N2C(=O)NCC(=O)O [(14)]
730,A,B,–,"CNC(=O)N(c1ccc(N(C)C)cc1)c1ccc(N(C)C)cc1 [(15), reference compound]"
730,A,B,–,"CCCCNC(=O)N(c1ccc(N(C)C)cc1)c1ccc(N(C)C)cc1 [(16), reference compound]"
666,B,B,–,"CNC(=O)N1c2ccc(N(C)C)cc2Sc2cc(N(C)C)ccc21 [(17), reference compound]"
730,A,B,.circleincircle,"CN(C)c1ccc(N(C(=O)NCC(=O)O)c2ccc(N(C)C)cc2)cc1 [Compound No. (1), sodium salt of N,N-bis(4-dimethylaminophenyl)-N'-carboxymethylurea]"
730,A,B,.circleincircle,"CN(C)c1ccc(N(C(=O)Nc2ccc(S(=O)(=O)O)cc2)c2ccc(N(C)C)cc2)cc1 [Compound No. (2), sodium salt of N, N-bis(4-dimethylaminophenyl)-N'-(4-sulfophenyl)urea]"
740,A,A,–,"CCN(CC)c1ccc(N(C(=O)NS(=O)(=O)c2ccc(C)cc2)c2ccc(N(C)C)cc2C)c(C)c1 [Compound No. (7), N-(4-dimethylamino-2-methylphenyl)-N-(4'-diethylamino-2'-methylphenyl)-N'-(4-methylphenylsulfonyl)urea]"
666,B,B,.circleincircle,"CN(C)c1ccc2c(c1)Sc1cc(N(C)C)ccc1N2C(=O)NCC(=O)O [Compound No. (9), sodium salt of 10-(carboxymethylaminocarbonyl)-3,7-bis(dimethylamino)phenothiazine]"
666,B,B,.circleincircle,"CN(C)c1ccc2c(c1)Oc1cc(N(C)C)ccc1N2C(=O)NCC(=O)O [Compound No. (10), sodium salt of 10-(carboxymethylaminocarbonyl)-3,7-bis(dimethylamino)phenoxazine]"
